{
  "source": "patent US11247996B2",
  "about": "“Small molecule inhibitors for transcription factors” (University of Massachusetts, priority 2016, dated 2022)",
  "key": {"[1]": {"system": "full-length HIV-1 NL4-3 (X4) viruses in Jurkat cells", "assay": "Viral production in full-length HIV-1 NL4-3 infected Jurkat cells (qRT-PCR of medium)", "assay_type": "cell-based", "details": "full replication competent NL4-3 infected Jurkat cells, 24 hours", "protocol": "To determine the effect of UMB-136 on HIV-1 replication, Jurkat cells were infected with full-length HIV-1 NL4-3 (X4) viruses for 8 hours before being treated with compounds (UMB-136, JQ1, or prostratin) for 24 hours. The medium was collected and subjected to viral RNA extraction, reverse transcription, and qPCR assays by using Lenti-X™ qRT-PCR Titration Kit (Clontech, Mountain View, Calif.) following the manufacturer's instructions."}, "[2]": {"system": "latent HIV-1 in J-Lat A2 cells", "assay": "HIV-1 latency-reversing flow cytometry assay in J-Lat A2 cells", "assay_type": "cell-based", "details": "5 μM; for HIV-1 reactivation (GFP-positive cells): 24 hours post treatment", "protocol": "(§1) The CD4+ T-lymphoid cell lines included Jurkat, J-Lat A2 (harboring an LTR-Tat-IRES-GFP construct), J-Lat 6.3, 8.4, 9.2, 10.4 (containing a full-length integrated HIV-1 genome with a defective envelop, that express GFP upon activation). Monocytic THP89GFP cells were provided by David Levy (New York University). Jurkat cells were cultured in RPMI with 10% FBS. THP89GFP and Primary CD4+ helper T cells (Sanguine Biosciences, Sherman Oaks, Calif. and Lonza Group Ltd., Basel, Switzerland) were cultured and maintained respectively in complete medium (RPMI 1640 with 10% FBS, lx glutamine, lx MEM non-essential amino acid solution, and 20 mM HEPES).\nWells were treated with 5 μM of compound or dimethyl sulfoxide (DMSO). GFP-positive cells were acquired and analyzed by flow cytometry at 24 hours post treatment.\n(§2) All flow cytometry assays were conducted using an Accuri C6 Flow Cytometer (Accuri, Ann Arbor, Mich.). Cell debris and aggregates were excluded by gating on the Forward Scatter (FS) and Side Scatter (SS) parameters."}, "[3]": {"system": "latent HIV-1 89.6 strain in THP89GFP cells", "assay": "Flow cytometry on THP89GFP monocytic latency cells", "assay_type": "cell-based", "details": "UMB-136 5 μM, JQ1 1 μM, 24 hours", "protocol": "as §1\n(§3) The HIV-1 latency-reversing effect of UMB-136 was evaluated on different reservoirs (lymphocytes and macrophages), J-Lat cell clones (6.3, 8.4, 9.2, and 10.4) and THP89GFP were treated with DMSO, JQ1 (1 μM), or UMB-136 (2.5, 5 μM for J-Lat cells, 5 μM for THP89GFP). For the investigation of synergistic effects JLat clones were treated with UMB-136 (2.5 μM), JQ1 (1 μM), SAHA (0.5 μM) or prostratin (1 μM) or DMSO as a control. Drugs were used alone or in combination. Flow cytometry was conducted at 24 hours post treatment and GFP-positive cells were quantified.\n(§4) All flow cytometry assays were conducted using an Accuri C6 Flow Cytometer (Accuri, Ann Arbor, Mich.). […]"}, "[4]": {"system": "latent HIV-1 in non-polarized, memory CD4+ T cells", "assay": "Primary CD4+ T cell model of HIV-1 latency (blood or tonsil)", "assay_type": "cell-based", "details": "primary CD4+ T cells from blood or lymph node (tonsil), two donors; compound alone", "protocol": "To acquire primary CD4+ T cells, primary CD4+ T cells were isolated from either lymphoid tissue (tonsil) or from the peripheral blood of two donors. Tonsils were isolated from HIV-negative donors, with obstructive sleep apnea (OSA), whom required surgical removal of their tonsils. Isolation of tonsillar mononuclear cells (TMC) was performed as described in Johnston et al. Curr Protoc Immunol Chapter 7, Unit 7-8. In brief, fresh, healthy tonsils kept in ice-cold 1× Hank's Balanced Salt Solution (HBSS) with antibiotics (100 U/mL penicillin, 100 ug/mL streptomycin, 5 ug/mL gentamicin, 0.5 ug/mL amphotericin) were cut into 3- to 10-mm fragments with scalpels then pushed through a 3-inch stainless steel sieve using the flat end of a 5-mL plastic syringe plunger. […]\nThe LRA effect of UMB-136 was studied by modifying slightly a primary CD4+ T cell model of HIV-1 latency as described in Bosque et al. Methods. […] On day 21, 5 days post treatment, the supernatant was collected for quantification of newly produced viruses using the Lent-X™ qRT-PCR Titration Kit (Clontech, Mountain View, Calif.) following the manufacturer's instructions."}, "[5]": {"system": "primary CD4+ T cells", "assay": "Cytokine release in primary CD4+ T cells from healthy donor", "assay_type": "cell-based"}, "[6]": {"target": "T1, endogenous BRD4 (Homo sapiens, UniProt O60885)", "T1 construct": "endogenous in cells; host or cells: HEK293", "assay": "Pull-down with biotinylated UMB-136 from HEK293 cell lysate, BRD4 immunoblot", "assay_type": "binding", "details": "biotinylated UMB-136, HEK293 cell lysate", "protocol": "(§5) Pull-down and Immunoprecipitation (IP) assays were performed by incubating HEK293 cell lysate with either biotinylated UMB-136 or biotin in DMSO at 4° C. overnight with orbital rocking. MyOne™ Streptavidin T1 Dynabeads™ (Invitrogen, Carlsbad, Calif.) were added to the mixture which was then incubated for 2 hours. Beads were washed and then boiled to elute precipitated proteins, which were subjected to immunoblotting using BRD4 antibody (Bethyl Laboratories, Inc., Montgomery, Tex.) or BRD2 antibody (Santa Cruz Biotechnology, Dallas, Tex.)."}, "[7]": {"target": "T2, BRD2 (Homo sapiens, UniProt P25440)", "T2 construct": "endogenous in cells; host or cells: HEK293", "T2 sequence (P25440 whole entry)": "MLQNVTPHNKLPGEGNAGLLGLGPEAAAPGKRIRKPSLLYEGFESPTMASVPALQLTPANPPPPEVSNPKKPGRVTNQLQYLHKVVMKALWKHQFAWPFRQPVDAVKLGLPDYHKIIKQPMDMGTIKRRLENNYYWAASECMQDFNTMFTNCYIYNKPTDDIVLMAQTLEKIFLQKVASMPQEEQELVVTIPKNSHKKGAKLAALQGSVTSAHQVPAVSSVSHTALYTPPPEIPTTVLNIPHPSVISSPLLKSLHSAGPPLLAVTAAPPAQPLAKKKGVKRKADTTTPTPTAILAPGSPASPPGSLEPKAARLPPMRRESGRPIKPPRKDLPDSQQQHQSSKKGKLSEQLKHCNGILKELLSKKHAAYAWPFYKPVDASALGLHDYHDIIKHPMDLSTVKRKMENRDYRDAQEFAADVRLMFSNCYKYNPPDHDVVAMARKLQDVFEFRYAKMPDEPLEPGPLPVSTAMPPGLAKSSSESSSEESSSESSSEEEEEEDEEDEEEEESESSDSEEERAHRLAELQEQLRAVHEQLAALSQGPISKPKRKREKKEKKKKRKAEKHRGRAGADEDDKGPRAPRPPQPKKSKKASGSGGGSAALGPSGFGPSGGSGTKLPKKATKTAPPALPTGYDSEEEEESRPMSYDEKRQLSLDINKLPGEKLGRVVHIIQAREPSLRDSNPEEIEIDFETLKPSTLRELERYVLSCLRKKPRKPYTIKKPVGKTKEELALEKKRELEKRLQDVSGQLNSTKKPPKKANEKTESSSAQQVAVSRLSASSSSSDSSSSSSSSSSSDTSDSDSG", "assay": "Pull-down with biotinylated UMB-136 from HEK293 cell lysate, BRD2 immunoblot", "assay_type": "binding", "details": "biotinylated UMB-136, HEK293 cell lysate", "protocol": "as §5"}, "[8]": {"system": "Jurkat cells", "details": "human, 24 h, 2.5 μM", "description": "Cell viability assays were performed by culturing Jurkat cells in a 48-well plate at 1×10^5 cells per well in a total volume of 250 μl RPMI media with 10% FBS. […] After an incubation period of 24 hours, cells were lysed. The total ATP content was measured using Cell Titer Glo (Promega Corporation, Madison, Wis.)."}, "[9]": {"system": "P-TEFb (CCNT1) and Tat", "assay": "Tat-Flag immunoprecipitation in HeLa cells, Cyclin T1 immunoblot", "assay_type": "cell-based", "details": "2.5 μM, 24 hours", "protocol": "Tat-Flag expressing HeLa cells were treated with UMB-136 (2.5 μM) or DMSO for 24 hours, then incubated with Magnetic Flag Conjugated beads (Clontech, Mountain View, Calif.) at 4° C. for overnight with orbital rocking. Beads were washed and boiled, then immunoblotting was performed using Cyclin T1 antibody (Santa Cruz Biotechnology, Dallas, Tex.)."}, "[10]": {"system": "latent HIV-1 in J-Lat clones (6.3, 8.4, 9.2, and 10.4)", "assay": "Flow cytometry on J-Lat full-length (dEnv) clones, single LRA", "assay_type": "cell-based", "details": "J-Lat 6.3, 8.4, 9.2, 10.4; UMB-136 2.5 and 5 (printed PM), JQ1 1 μM; 24 hours", "protocol": "as §1, §3, §4"}, "[11]": {"system": "VSV-G pseudo-typed HIV-1 NL4-3-Luciferase virus infected Jurkat cells", "assay_type": "cell-based"}, "[12]": {"system": "latent HIV-1 in CD8-depleted PBMCs", "assay": "Ex vivo latency reversal in CD8-depleted PBMCs of cART-treated aviremic patients (nested qPCR)", "assay_type": "cell-based"}, "[13]": {"system": "latent HIV-1 in J-Lat clones (6.3, 8.4, 9.2, and 10.4)", "assay": "LRA combinations in J-Lat clones (flow cytometry, Bliss independence model)", "assay_type": "cell-based", "details": "for Synergy in reversing HIV-1, combination with prostratin: +prostratin 1 μM", "protocol": "as §3, §2"}, "[14]": {"system": "CD8-depleted PBMCs", "assay": "Cell death due to LRA treatments in CD8-depleted PBMCs", "assay_type": "cell-based", "details": "compared with JQ1 combinations"}, "[15]": {"target": "BRD4 (Homo sapiens, UniProt O60885)", "details": "McKeown et al., J Med Chem, 2014; cited from earlier work"}, "[16]": {"target": "TAF1 (Homo sapiens, UniProt P21675)", "sequence (P21675 whole entry)": "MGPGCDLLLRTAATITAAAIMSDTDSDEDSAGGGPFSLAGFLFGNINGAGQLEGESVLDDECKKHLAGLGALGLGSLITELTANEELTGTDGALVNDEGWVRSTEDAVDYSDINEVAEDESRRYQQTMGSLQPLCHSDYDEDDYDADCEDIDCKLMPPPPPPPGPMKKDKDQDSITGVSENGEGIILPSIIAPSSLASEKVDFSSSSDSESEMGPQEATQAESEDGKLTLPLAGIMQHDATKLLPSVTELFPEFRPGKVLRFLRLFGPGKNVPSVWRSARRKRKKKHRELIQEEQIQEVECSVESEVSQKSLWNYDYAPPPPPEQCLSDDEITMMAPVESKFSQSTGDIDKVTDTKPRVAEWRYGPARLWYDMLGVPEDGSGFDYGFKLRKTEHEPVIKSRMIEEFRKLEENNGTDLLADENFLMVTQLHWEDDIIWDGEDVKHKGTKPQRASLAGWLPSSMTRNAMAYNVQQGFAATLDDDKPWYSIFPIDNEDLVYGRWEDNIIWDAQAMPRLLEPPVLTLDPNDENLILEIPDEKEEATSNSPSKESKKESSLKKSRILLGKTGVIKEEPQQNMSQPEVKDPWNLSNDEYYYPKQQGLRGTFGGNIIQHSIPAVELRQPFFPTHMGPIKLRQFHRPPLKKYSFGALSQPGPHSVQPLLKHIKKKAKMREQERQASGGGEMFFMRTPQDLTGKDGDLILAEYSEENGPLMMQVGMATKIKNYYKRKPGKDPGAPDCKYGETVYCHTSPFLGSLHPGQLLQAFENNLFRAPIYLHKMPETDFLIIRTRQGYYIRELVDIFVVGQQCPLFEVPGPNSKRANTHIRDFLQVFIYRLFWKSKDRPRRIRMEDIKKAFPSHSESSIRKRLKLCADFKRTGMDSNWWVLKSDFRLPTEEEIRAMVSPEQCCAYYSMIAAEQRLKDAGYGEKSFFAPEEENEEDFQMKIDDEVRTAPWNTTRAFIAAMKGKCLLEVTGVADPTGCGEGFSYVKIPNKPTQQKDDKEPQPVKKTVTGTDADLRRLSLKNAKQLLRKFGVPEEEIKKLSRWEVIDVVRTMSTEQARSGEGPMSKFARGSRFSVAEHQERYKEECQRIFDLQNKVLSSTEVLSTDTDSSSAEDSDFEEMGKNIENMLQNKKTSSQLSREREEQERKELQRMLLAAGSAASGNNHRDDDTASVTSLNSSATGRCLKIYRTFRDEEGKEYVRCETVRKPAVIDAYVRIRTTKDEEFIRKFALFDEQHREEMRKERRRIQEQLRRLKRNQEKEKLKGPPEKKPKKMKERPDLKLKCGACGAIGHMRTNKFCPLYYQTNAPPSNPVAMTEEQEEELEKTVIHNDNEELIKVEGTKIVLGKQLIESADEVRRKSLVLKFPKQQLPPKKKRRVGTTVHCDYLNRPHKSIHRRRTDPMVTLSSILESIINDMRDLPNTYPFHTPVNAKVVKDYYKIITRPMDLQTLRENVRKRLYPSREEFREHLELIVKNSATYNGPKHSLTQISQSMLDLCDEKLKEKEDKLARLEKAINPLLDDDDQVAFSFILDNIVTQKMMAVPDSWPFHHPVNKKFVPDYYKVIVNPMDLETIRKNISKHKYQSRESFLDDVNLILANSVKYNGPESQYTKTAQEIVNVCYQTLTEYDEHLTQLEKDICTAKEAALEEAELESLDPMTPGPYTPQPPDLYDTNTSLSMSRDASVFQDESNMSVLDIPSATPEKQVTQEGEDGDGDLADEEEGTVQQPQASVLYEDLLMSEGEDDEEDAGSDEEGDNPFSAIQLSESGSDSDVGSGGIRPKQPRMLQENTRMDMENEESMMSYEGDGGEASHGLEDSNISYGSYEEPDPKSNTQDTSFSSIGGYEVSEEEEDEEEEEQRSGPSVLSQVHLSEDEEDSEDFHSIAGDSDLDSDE", "details": "McKeown et al., J Med Chem, 2014; cited from earlier work"}, "[17]": {"system": "latent HIV-1 in CD8-depleted PBMCs", "details": "JQ1 in combination with bryostatin-1, earlier reports; cited from earlier work"}, "[18]": {"details": "J-Lat clones, Bliss independence model"}},
  "data": [
    {"smiles": "COc1cc(-c2c(C)noc2C)ccc1-c1nc2cnccn2c1NC1CCCCC1", "note": "[UMB-136]", "values": [
      {"measurement": "Viral production", "setting": "[1]", "value": "enhanced viral production"},
      {"measurement": "HIV-1 latency-reversing potency relative to other UMB compounds", "setting": "[2]; 24 hours", "value": "most effective of all"},
      {"measurement": "HIV-1 reactivation (GFP-positive cells)", "setting": "[2]", "value": "significantly induced HIV-1 reactivation"},
      {"measurement": "Reactivation of latent HIV-1", "setting": "[3]", "value": "substantial reactivation"},
      {"measurement": "Reactivation of latent virus", "setting": "[4]", "value": "efficiently reactivated latent virus"},
      {"measurement": "Cytokine release", "setting": "[5]", "value": "does not induce cytokine release"},
      {"measurement": "Binding to endogenous BRD4 (pull-down)", "setting": "[6]", "value": "binds to endogenous BRD4"},
      {"measurement": "Binding to BRD2 (pull-down)", "setting": "[7]", "value": "not BRD2"},
      {"measurement": "Cell viability", "setting": "[8]", "value": "same viability as 1 μM of JQ1"},
      {"measurement": "Protein association between P-TEFb (CCNT1) and Tat", "setting": "[9]", "value": "greater protein association between P-TEFb (CCNT1) and Tat"},
      {"measurement": "Reversal of HIV-1 latency (GFP-positive cells)", "setting": "[10]", "value": "dramatically reversed HIV-1 latency"},
      {"measurement": "HIV-1 transcriptional initiation and elongation", "setting": "[11]", "value": "enhances both transcriptional initiation and elongation of HIV-1"},
      {"measurement": "Viral reactivation, combination with bryostatin-1, compared with JQ1+bryostatin-1", "setting": "[12]", "value": "even greater viral reactivation"},
      {"measurement": "Reversal of HIV-1 latency, combination with PKC agonists (prostratin or bryostatin-1)", "setting": "[12]; CD8-depleted PBMCs, UMB-136 2.5 μM, prostratin 250 nM or bryostatin-1 10 nM, 48 hours", "value": "observed to reverse HIV-1 latency"},
      {"measurement": "Synergy in reversing HIV-1, combination with SAHA", "setting": "[13]; J-Lat clones, Bliss independence model, +SAHA 0.5 μM", "value": "statistically significant synergistic effect"},
      {"measurement": "Synergy in reversing HIV-1, combination with prostratin", "setting": "[13]; [18]", "value": "statistically significant synergistic effect"},
      {"measurement": "HIV-1 reactivation in combination with SAHA or prostratin, compared with JQ1 combination", "setting": "[13]; J-Lat clones, UMB-136 2.5 μM, SAHA 0.5 μM, prostratin 1 μM", "value": "greater effect of HIV-1 reactivation than its JQ1 counterpart"},
      {"measurement": "Cytotoxicity (cell death) of combinations with prostratin/bryostatin-1", "setting": "[14]", "value": "less cytotoxicity than JQ1 and prostratin/bryostatin-1 combinations"}
    ]},
    {"smiles": "Cc1noc(C)c1-c1ccc(-c2nc3cnccn3c2NC(C)(C)C)cc1", "note": "[UMB-32]", "values": [
      {"measurement": "HIV-1 reactivation (GFP-positive cells)", "setting": "[2]", "value": "significantly induced HIV-1 reactivation"},
      {"measurement": "Binding to BRD4", "setting": "[15]", "value": "strongly binds"},
      {"measurement": "Inhibition of target binding of BRD4", "setting": "[15]", "value": "potently inhibits the target binding of BRD4"},
      {"measurement": "Binding to TAF1", "setting": "[16]", "value": "strongly binds"}
    ]},
    {"smiles": "Cc1sc2c(c1C)C(c1ccc(Cl)cc1)=N[C@@H](CC(=O)OC(C)(C)C)c1nnc(C)n1-2", "note": "[JQ1, reference compound]", "values": [
      {"measurement": "Viral production", "setting": "[1]", "value": "did not"},
      {"measurement": "Reactivation of latent HIV-1", "setting": "[3]", "value": "did not"},
      {"measurement": "Reactivation of latent virus", "setting": "[4]", "value": "fails to do so"},
      {"measurement": "Reversal of HIV-1 latency (GFP-positive cells)", "setting": "[10]", "value": "no observable effect"},
      {"measurement": "Reversal of HIV-1 latency, combination with bryostatin-1 (reported)", "setting": "[17]", "value": "potently reverse HIV-1 latency"},
      {"measurement": "Reactivation of latent HIV-1, combination with SAHA", "setting": "[13]; J-Lat cell clones, JQ1+SAHA combination", "value": "minimally reactivates latent HIV-1"},
      {"measurement": "Synergy in reversing HIV-1, combination with prostratin", "setting": "[13]; [18]", "value": "significantly synergizes with prostratin"}
    ]}
  ]
}
